Reference: US20110166030A1, “Prediction of response to docetaxel therapy based on the presence of TMPRSSG2:ERG fusion in circulating tumor cells” (priority 2009, published 2011)

Tests used:
[1] = test system: metastatic prostate cancer; experiment: Response to therapy in metastatic androgen-independent prostate cancer patients (reduction in PSA levels); type: in vivo, human
Text: Thus, disclosed herein is a method of expression profiling of gene of interest in CTCs using real time quantitative RT-PCR. Briefly, in a proof of concept, in total RNA isolated from circulating tumor cells of each of 40 metastatic prostate cancer patients gene expression profiles of 14 candidate genes were investigated by real time quantitative RT-PCR. […] Based on this application of RT-PCR based detection of the TMPRSS2-ERG fusion gene expression, patients are stratified for effective treatment with docetaxel chemotherapy, with an overall improvement in disease outcome and quality of life with very high specificity.
Briefly, the 40 subjects were recruited from the Cedars-Sinai Medical Center in Los Angeles. Appropriate IRB approvals were obtained prior to patient sample collection. The inclusion criteria consisted of: patient must be at least 18 years old and with clinical diagnosis of Stage IV (metastatic) prostate cancer; patients must provide written consent/authorization to participate in this study, no signs or symptoms of active infection, willing and able to comply with procedures required in this protocol.
All patients were receiving treatments at Cedars-Sinai Medical Center at Los Angeles and all have metastatic prostate cancers. […]

[2] = test system: castration resistant prostate cancer (CRPC); experiment: CEC, CTC, ET-1 and TF levels during docetaxel treatment of CRPC patients; type: in vivo, human
Experimental: Blood samples were collected from 231 patients with CRPC by venesection into 2×10 mL CellSave tubes (Veridex, LLC, Raritan, N.J.) and 1×6 mL serum tube in a multi-center prospective study. One CellSave tube was used to determine the number of CTC for prediction of OS. Results on CTC levels measured in this group have been previously published. The second collected CellSave tube was used to determine CEC numbers.
In order to assess a homogenous group of patients with respect to systemic therapy, we selected all who were scheduled to receive docetaxel or a docetaxel containing regimen (n=162) from the 231 patients. Treatment was continued until progression or unacceptable toxicity. Main eligibility criteria included age ≧18 years, pathological diagnosis of adenocarcinoma of the prostate, first or later line of chemotherapy, serum testosterone <1.7 nmol/L ([…]), Eastern Cooperative Oncology Group (ECOG) performance status 0-2, pretreatment serum PSA≧5 ng/mL, PSA progression (rises above a reference value) despite androgen deprivation therapy, and ability to sign informed consent. This study was approved by the local Institutional Medical Ethical Review Boards and is in agreement with the Helsinki declaration of 2000. Written informed consent was obtained from all patients prior to participation.
CEC and CTC counts were determined prior to initiation of chemotherapy and after 2-5 weeks (first follow-up draw) and 6-8 weeks (second follow-up draw) of treatment. Serum concentrations of ET-1 and TF were also determined at these same time points.
The CellTracks® AutoPrep® and CellTracks Analyzer II® Systems (both Veridex, LLC, Raritan, N.J.) were used to count CTC and CEC. CTC were defined as intact cells positive for the nuclear stain 4′ 6-diamidinophenylindole (DAPI), the epithelial cell adhesion molecule (EpCAM), and for cytokeratins 8, 18 and 19 that also lacked expression of the panleukocyte marker CD45. CEC were identified as intact cells positive for DAPI, CD146 and CD105 that also lacked expression of CD45.
The technical details of both assays have been published previously. […]
Serum concentrations (pg/mL) of ET-1 and TF-1 were determined by ELISA. […] Absorbance was read at 450 nm using a Titertek 212 MS microplate reader (Titertek, Huntsville, Ala.). […]
Longitudinal biomarker data were analyzed using a random effects linear regression model using the maximum likelihood random effects estimator (the “xtreg, mle” command in STATA). […] To determine a cutoff value for survival analysis of CEC numbers and serum concentrations of ET-1 and TF, patient data were first stratified according percentiles (p0-p25; p25-p50, p50-p75, and p75-p100), in which either their baseline value or the change between baseline values and those determined at 2-5 weeks would fall. […]

## CC(=O)O[C@@]12CO[C@@H]1C[C@H](O)[C@@]1(C)C(=O)[C@H](O)C3=C(C)[C@@H](OC(=O)[C@H](O)[C@@H](NC(=O)OC(C)(C)C)c4ccccc4)C[C@@](O)([C@@H](OC(=O)c4ccccc4)[C@H]21)C3(C)C [Docetaxel]
[1]; 40 metastatic prostate cancer patients, Tax 14 patients, Tax + RAD 11 patients treated
  Response to treatment, Number of Patients: 7
[1]; five fusion-positive patients received Docetaxel-based therapy (Docetaxel or Docetaxel plus RAD001)
  Patients with T1E4 or T2E4 fusion gene expression in CTCs who responded to the therapy: 5 patients
[2]; after 2-5 weeks of treatment, cells/7.5 mL blood
  Change in CTC numbers: decreased significantly
[2]; after 6-8 weeks of therapy vs baseline and first follow-up draw, ELISA
  Change in serum TF: significant decrease
[2]; baseline, 2-5 and 6-8 weeks, ELISA
  Serum concentrations of ET-1 during treatment: remained constant
[2]; first follow-up draw, 2-5 weeks after initiation of docetaxel, cells/4.0 mL blood
  Change in CEC numbers vs baseline: significant increase
